Where a SMILES comes first, the peptide text is derived from it. [ ]: non-standard residue; d: D form. Aun = NCCCCCCCCCCC(=O)O
Key:
[1] = target: Peptide N-myristoyltransferase (Candida albicans)
[2] = Selectivity is the ratio of the IC50 against human NMT to the IC50 against Candida albicans NMT.; format: functional
[3] = target: T1, Peptide N-myristoyltransferase (Homo sapiens, UniProt P30419+O60551); test: Inhibitory activity against human N-Myristoyltransferase (NMT).; format: protein assay
T1 sequence (P30419 whole entry): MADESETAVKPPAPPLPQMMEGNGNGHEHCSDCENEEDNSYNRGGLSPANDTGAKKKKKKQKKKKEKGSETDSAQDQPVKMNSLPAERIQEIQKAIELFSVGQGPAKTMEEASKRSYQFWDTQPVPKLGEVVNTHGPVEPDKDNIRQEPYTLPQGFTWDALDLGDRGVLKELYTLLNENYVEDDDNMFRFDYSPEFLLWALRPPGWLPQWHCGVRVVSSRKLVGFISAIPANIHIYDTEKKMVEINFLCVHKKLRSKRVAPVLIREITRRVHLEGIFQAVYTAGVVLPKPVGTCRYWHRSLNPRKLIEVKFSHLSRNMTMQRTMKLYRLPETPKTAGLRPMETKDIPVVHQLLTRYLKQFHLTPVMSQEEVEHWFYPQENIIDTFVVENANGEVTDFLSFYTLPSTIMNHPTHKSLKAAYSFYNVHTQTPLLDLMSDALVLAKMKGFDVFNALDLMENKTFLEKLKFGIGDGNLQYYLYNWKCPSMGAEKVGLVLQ
T1 sequence (O60551 whole entry): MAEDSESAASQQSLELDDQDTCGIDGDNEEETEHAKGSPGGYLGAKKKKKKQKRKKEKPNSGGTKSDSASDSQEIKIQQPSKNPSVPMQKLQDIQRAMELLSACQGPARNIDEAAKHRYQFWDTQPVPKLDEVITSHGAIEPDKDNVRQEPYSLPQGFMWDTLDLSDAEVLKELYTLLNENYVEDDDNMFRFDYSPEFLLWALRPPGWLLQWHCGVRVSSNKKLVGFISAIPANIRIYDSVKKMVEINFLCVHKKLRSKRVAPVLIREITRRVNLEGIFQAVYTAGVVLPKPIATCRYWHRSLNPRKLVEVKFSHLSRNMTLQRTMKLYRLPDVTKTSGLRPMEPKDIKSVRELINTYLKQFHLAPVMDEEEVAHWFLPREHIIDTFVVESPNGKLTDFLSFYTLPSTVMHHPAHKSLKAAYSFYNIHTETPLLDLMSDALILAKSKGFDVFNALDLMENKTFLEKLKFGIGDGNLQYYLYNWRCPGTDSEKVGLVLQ

[4] = target: Peptide N-myristoyltransferase (Candida albicans); remark: listed apart in the source
[5] = target: T1, Peptide N-myristoyltransferase; test: Apparent binding affinity against Human NMT.; format: protein assay

SMILES	IC50 [1]	IC50 [3]	Ki [4]	Ki [5]	Selectivity [2]
NCCCCCCCCCCC(=O)N[C@@H](CO)C(=O)N[C@@H](CCCCN)C(=O)NCCC1CCCCCCC1	300 nM	1140 nM	130 nM		3.8
NCCCC[C@H](NC(=O)[C@H](CO)NC(=O)CCCCCCCCCCn1ccnc1)C(=O)NCCC1CCCCC1	1600 nM	11400 nM	760 nM	4200 nM	7.1
NCCCC[C@H](NC(=O)[C@H](CO)NC(=O)Cc1ccc(CCCCn2ccnc2)cc1)C(=O)NCCC1CCCCC1	420 nM	16000 nM	590 nM		38

Further lines, with some results ahead:

IC50 [1]	IC50 [3]	Ki [4]	Ki [5]	SMILES	Selectivity [2]
780 nM	420 nM			CC(C)CCNC(=O)[C@H](CCCCN)NC(=O)[C@H](CO)NC(=O)CCCCCCCCCCN	0.5
1200 nM	230 nM			CC(C)C[C@H](NC(=O)[C@H](CCCCN)NC(=O)[C@H](CO)NC(=O)CCCCCCCCCCN)C(N)=O (H-[Aun]SKL-NH2)	0.2
